Measurements taken from BindingDB's records for doi:10.1046/j.1471-4159.1997.68062263.x (Dynamique Des Systemes Neuroendocriniens, 1997).
Numbered stars: 1 amine (or outer) side, 2 acyl side, 3 side chain; on linkers, the order of the positions; unused ones are H or OH. Bridge positions count the residues as written; N and C are the ends. Square brackets hold non-standard residues; d marks the D form. Peptide text beside a SMILES is read from it. ξ: configuration not given here. Phe(4-CH2NHiPr) = CC(C)NCc1ccc(C[C@H](N)C(=O)O)cc1; X1 = CC(C)NCc1ccc(C[C@@H](N[*:1])C(=O)[*:2])cc1; d1Nal = N[C@H](Cc1cccc2ccccc12)C(=O)O; Thr(3ξ) = CC(O)[C@H](N)C(=O)O; ξF = NC(Cc1ccccc1)C(=O)O; ξK = NCCCCC(N)C(=O)O; ξT = CC(O)C(N)C(=O)O

Experiments:
[1] = target: T1, Somatostatin receptor type 5 (Rattus norvegicus, UniProt P30938)
T1 sequence (P30938 whole entry): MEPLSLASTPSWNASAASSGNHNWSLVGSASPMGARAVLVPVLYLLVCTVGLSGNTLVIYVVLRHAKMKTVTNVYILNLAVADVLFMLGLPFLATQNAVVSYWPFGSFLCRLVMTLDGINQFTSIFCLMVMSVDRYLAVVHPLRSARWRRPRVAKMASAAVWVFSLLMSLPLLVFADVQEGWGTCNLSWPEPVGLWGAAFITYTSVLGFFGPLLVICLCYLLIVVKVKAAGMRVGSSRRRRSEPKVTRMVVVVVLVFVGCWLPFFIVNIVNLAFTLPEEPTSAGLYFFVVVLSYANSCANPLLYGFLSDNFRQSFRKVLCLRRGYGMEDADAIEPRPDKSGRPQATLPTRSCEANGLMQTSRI

[2] = target: Somatostatin receptor type 1 (Rattus norvegicus, UniProt P28646)
[3] = target: Somatostatin receptor type 2 (Rattus norvegicus, UniProt P30680)
[4] = target: Somatostatin receptor type 3 (Rattus norvegicus, UniProt P30936)
[5] = target: Somatostatin receptor type 4 (Rattus norvegicus, UniProt P30937)
Chain of Somatostatin receptor type 4 (P30937 whole entry): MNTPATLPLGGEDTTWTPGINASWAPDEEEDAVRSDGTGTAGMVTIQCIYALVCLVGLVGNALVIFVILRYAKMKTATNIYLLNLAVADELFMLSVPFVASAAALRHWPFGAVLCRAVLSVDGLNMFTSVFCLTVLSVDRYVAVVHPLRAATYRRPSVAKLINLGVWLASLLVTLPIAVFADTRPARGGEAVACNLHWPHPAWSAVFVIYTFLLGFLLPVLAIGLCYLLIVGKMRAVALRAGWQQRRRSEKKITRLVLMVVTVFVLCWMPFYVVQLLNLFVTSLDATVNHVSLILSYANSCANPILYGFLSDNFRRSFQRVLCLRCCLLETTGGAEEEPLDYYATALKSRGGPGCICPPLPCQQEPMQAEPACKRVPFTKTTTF

Chain of Somatostatin receptor type 3 (P30936 whole entry): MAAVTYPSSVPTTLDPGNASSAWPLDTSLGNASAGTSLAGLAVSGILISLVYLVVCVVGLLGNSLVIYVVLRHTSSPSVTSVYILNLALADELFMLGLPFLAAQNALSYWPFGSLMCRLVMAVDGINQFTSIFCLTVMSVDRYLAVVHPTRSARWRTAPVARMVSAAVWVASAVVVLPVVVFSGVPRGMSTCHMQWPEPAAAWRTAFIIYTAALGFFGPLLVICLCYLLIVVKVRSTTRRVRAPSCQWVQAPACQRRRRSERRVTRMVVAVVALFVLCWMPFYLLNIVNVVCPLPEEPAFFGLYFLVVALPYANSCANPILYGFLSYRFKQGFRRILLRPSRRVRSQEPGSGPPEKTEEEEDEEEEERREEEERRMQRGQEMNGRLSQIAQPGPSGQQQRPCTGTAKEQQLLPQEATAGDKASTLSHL
Chain of Somatostatin receptor type 2 (P30680 whole entry): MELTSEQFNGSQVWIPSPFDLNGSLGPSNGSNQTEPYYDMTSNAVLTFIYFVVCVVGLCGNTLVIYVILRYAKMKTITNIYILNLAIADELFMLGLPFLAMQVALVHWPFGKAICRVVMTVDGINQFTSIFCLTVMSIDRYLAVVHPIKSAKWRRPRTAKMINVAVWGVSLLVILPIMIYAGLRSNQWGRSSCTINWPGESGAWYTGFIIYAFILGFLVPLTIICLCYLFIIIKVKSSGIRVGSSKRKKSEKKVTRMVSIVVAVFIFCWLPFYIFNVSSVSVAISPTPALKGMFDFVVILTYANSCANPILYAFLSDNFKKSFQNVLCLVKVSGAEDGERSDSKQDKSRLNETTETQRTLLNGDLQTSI
Chain of Somatostatin receptor type 1 (P28646 whole entry): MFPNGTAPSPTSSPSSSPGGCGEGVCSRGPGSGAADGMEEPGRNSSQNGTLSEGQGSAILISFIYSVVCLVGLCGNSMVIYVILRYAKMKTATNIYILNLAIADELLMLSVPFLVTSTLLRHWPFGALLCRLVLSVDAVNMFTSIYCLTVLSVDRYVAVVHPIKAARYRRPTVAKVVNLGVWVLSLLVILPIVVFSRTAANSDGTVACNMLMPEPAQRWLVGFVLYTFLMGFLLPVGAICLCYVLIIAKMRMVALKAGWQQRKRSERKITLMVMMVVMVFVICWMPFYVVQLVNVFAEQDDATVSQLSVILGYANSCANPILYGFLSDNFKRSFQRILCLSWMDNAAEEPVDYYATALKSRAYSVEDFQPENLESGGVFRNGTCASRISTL

Row | Compound | Ki [1] [nM] | Ki [2] [nM] | Ki [3] [nM] | Ki [4] [nM] | Ki [5] [nM]
1 | CC(C)[C@H](NC(=O)[C@H](CCCCN)NC(=O)[C@@H](Cc1c[nH]c2ccccc12)NC(=O)[C@H](Cc1ccc(O)cc1)NC(=O)[C@H](Cc1ccccc1)NC(=O)[C@@H](N)Cc1ccccc1)C(=O)N[C@@H](Cc1ccccc1)C(=O)N[C@H](Cc1cccc2ccccc12)C(N)=O [BIM 23056] (H-FFY[dW]KVF[d1Nal]-NH2) | 32.5 | – | – | – | –
2 | C[C@H](N)C(=O)NCC(=O)N[C@@H]1CSSC[C@@H](C(=O)O)NC(=O)[C@H](CO)NC(=O)[C@@H]([C@@H](C)O)NC(=O)[C@H](Cc2ccccc2)NC(=O)[C@@H]([C@@H](C)O)NC(=O)[C@H](CCCCN)NC(=O)[C@@H](Cc2c[nH]c3ccccc23)NC(=O)[C@H](Cc2ccccc2)NC(=O)[C@@H](Cc2ccccc2)NC(=O)[C@H](CC(N)=O)NC(=O)[C@@H](CCCCN)NC1=O | 2.6 | – | – | – | –
3 | CC(C)[C@H](NC(=O)[C@H](CCCCN)NC(=O)[C@@H](Cc1c[nH]c2ccccc12)NC(=O)[C@H](Cc1ccc(O)cc1)NC(=O)[C@H](Cc1ccccc1)NC(=O)[C@H](N)Cc1ccccc1)C(=O)N[C@@H](Cc1ccccc1)C(=O)N[C@H](Cc1cccc2ccccc12)C(N)=O [BIM 23056] (H-[dF]FY[dW]KVF[d1Nal]-NH2) | – | 301 | 835 | 380 | 83.8
4 | CC(C)NCc1ccc(C[C@@H]2NC(=O)[C@@H](Cc3c[nH]c4ccccc34)NC(=O)[C@H](Cc3ccccc3)NC(=O)[C@H](Cc3ccccc3)NC(=O)[C@H](CCCCN)NC(=O)[C@@H](N)CSSC[C@@H](C(=O)O)NC(=O)[C@H](CO)NC(=O)[C@H]([C@@H](C)O)NC(=O)[C@H](Cc3ccccc3)NC(=O)[C@H]([C@@H](C)O)NC2=O)cc1 [CH-275] (H-CKFF[dW][Phe(4-CH2NHiPr)]TFTSC-OH; disulfide 1-11) | – | 45.7 | 1000 | 577 | 465
5 | C[C@@H](O)[C@H](NC(=O)[C@H](Cc1ccccc1)NC(=O)[C@@H](NC(=O)[C@H](CCCCN)NC(=O)[C@@H](Cc1c[nH]c2ccccc12)NC(=O)[C@H](Cc1ccccc1)NC(=O)[C@H](Cc1ccccc1)NC(=O)[C@H](N)Cc1ccccc1)[C@@H](C)O)C(N)=O [CAS_133073-82-2] (H-[dF]FF[dW]KTFT-NH2) | 8.2 | – | 163 | 4.6 | 8.4
6 | CC(C)NCc1ccc(C[C@H]2NC(=O)[C@H](Cc3c[nH]c4ccccc34)NC(=O)C(Cc3ccccc3)NC(=O)C(Cc3ccccc3)NC(=O)C(CCCCN)NC(=O)[C@H](N)CSSC[C@H](C(=O)O)NC(=O)[C@@H](CO)NC(=O)[C@H](C(C)O)NC(=O)[C@@H](Cc3ccccc3)NC(=O)C(C(C)O)NC2=O)cc1 (stereo not given in full) [CH-275] (H-[dC][ξK][ξF][ξF]W[X1][ξT][dF][Thr(3ξ)][dS][dC]-OH; disulfide 1-11) | 279 | – | – | – | –
